Assay results: ChEMBL document CHEMBL2034964, “Investigation of the binding pocket of human hematopoietic prostaglandin (PG) D2 synthase (hH-PGDS): a tale of two waters” (Bioorg Med Chem Lett, 2012)

How the values were obtained:
[1] = target: T1, Hematopoietic prostaglandin D synthase (Homo sapiens, UniProt O60760); test: Inhibition of HPGDS
Liver microsomes [2] = test: (§1) Metabolic stability in human liver microsomes assessed as compound remaining after 30 mins; type: ADME, Microsome; conditions: microsomes, 0.5 h
Liver microsomes [3] = test: Half life in human liver microsomes; type: ADME, Microsome
[4] = target: ERG (KCNH2 potassium channel) (Homo sapiens, UniProt Q12809); test: Displacement of dofetilide from ERG at 10 uM; conditions: probe dofetilide
Chain of ERG (KCNH2 potassium channel) (Q12809 whole entry): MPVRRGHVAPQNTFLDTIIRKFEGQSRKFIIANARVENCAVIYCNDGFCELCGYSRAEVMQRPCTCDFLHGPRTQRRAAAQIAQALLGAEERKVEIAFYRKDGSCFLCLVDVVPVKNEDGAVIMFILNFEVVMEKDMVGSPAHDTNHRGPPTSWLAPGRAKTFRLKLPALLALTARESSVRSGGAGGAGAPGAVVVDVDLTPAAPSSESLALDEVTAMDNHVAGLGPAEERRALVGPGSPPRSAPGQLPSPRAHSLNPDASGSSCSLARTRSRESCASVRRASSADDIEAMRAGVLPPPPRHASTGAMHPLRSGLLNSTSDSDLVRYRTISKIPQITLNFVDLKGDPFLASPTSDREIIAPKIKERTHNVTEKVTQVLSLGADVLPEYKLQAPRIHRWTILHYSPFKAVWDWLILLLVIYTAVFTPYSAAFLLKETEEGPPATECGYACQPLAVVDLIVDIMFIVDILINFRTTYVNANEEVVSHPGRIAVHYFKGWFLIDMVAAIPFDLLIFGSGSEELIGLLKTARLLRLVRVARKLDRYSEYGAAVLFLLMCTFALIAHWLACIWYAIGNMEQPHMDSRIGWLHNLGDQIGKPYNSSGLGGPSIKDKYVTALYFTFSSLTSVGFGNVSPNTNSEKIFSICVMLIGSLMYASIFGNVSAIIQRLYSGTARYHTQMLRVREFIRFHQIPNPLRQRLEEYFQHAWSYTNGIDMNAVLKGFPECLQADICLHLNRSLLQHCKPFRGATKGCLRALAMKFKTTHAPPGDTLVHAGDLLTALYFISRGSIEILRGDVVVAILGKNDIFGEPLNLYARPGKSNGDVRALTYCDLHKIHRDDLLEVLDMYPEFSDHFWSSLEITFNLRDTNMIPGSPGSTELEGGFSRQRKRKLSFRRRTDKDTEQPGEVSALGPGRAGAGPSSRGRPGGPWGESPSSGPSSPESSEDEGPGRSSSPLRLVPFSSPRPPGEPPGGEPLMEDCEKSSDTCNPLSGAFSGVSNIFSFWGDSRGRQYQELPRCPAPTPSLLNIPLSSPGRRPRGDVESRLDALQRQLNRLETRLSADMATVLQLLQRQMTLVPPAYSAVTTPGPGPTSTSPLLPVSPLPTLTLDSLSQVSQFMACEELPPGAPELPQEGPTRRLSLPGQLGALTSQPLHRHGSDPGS

[5] = as §1; type: ADME, Microsome; conditions: liver microsomes, read-out: Stability
[6] = target: T1, Hematopoietic prostaglandin D synthase; test: Inhibition of human recombinant HPGDS using PGH2 as substrate assessed as production of PGD2 preincubated for 10 mins prior substrate addition measured after 42 secs by TBA-based fluorescence assay

T1 sequence (O60760 whole entry): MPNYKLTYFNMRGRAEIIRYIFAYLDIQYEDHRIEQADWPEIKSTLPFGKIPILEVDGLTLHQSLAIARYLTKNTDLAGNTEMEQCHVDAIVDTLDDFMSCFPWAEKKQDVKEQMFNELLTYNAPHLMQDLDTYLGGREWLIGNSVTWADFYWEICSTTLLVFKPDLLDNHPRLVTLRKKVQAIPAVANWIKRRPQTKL

Row | IC50 [1] | remaining at 0.5 h [5] | Compound | also measured
1 | < 1 nM | – | Cc1nc(-c2ccccc2)sc1C(=O)Nc1ccc(S(N)(=O)=O)cc1 | –
2 | 6900 nM | – | COc1ccccc1N1CCN(C(=O)c2ccc[nH]2)CC1 | –
3 | 280 nM | – | O=C(Nc1ccc(N2CCN(C(=O)N3CCOCC3)CC2)cc1)c1cnc(Oc2ccccc2)nc1 | –
4 | 0.2 nM | – | O=C(NC1CCN(CC(F)(F)F)CC1)c1ccc(-c2ccccc2)nc1 | –
5 | – | – | O=C(NCCN1CCOCC1)c1ccc(-c2nccc3ccccc23)cc1 | Stability (Liver microsomes [2]): 90%; t1/2 (Liver microsomes [3]): 1 h; inhibition at 10 µM [4]: 3%
6 | – | 20% | O=C(NCCN1CCOCC1)c1ccc(-c2ccccn2)cc1 | IC50 [6]: 274 nM
7 | – | 76% | Cc1cc2ccccc2c(-c2ccc(C(=O)NCCN3CCOCC3)cc2)n1 | –
8 | – | 94% | O=C(NCCN1CCOCC1)c1ccc(-c2c(O)ccc3ccccc23)cc1 | IC50 [6]: 662 nM
